Read-outs that look alike come from different tables or passages of the source.
Experiments:
[1] = test system: Human Brain Microvascular Endothelial Cells (HBMVEC); experiment: CellTox Green 24-hour dose dependent cytotoxicity assay; assay type: cell-based; conditions: for toxicity in the cellular model: 100 nM, 10 μM, 100 μM, 0.5 mM
Experimental: Cell cultures were prepared using the following general procedures.
1. Under aseptic conditions 1×20 mm sterile tissue culture dish was coated with sterile 1:100 collagen for two hours at room temperature.
2. Under aseptic conditions 2× sterile 96 well-plates were coated with sterile 50 μL 1:100 collagen for two hours at room temperature.
3. After 2 hr collagen was recollected into 50 mL conical tube.
4. The petri dish and 2×96 well-plates were washed with warmed PBS.
5. Once 60% confluency of HBMVEC was observed, the plate was prepped for passage.
6. Media was aspirated from dish and washed with 1×PBS.
7. 1 mL of Trypsin was added, and the plate was transferred to 37° C. incubator for 1-2 min until cells appeared detached.
8. The plate was transferred back into sterile conditions and 2 mL of EndoGro Basal Media was added to inhibit Trypsin reaction.
9. Cells were pipetted 20× and thoroughly mixed before transferring into 25 mL of EndoGro Basal Media.
10. 100 μL of this mixture was added into each well both 96 well-plate.
11. Left over 5.8 mL of cell solution was transferred to petri dish previously coated with collagen and washed with 1×PBS.
12. Plates were incubated for 48 hours at 37° C.
The following procedures were performed for the cell cytotoxicity assay (CellTox™ Green Cytotoxicity Assay; Promega Corporation). See also CellTox™ Green Cytotoxicity Assay, Instructions for Use of Products G8741, G8742, G8743, and G8731, revised May 2015, the disclosure of which is incorporated herein by reference in its entirety.
1. Samples containing 1:1000 L-Arginine (L-Arg; 100 nM, 10 μM, 100 μM, or 0.5 mL) or 1:1000 of 2-amino-5-guanidino-N-(4-guanidinobutyl)pentanamide (Example 1; 100 nM, 10 μM, 100 μM, or 0.5 mL) were prepared with EndoGro Basal Media without supplements (MWOS) into sterile 10×1 mL microcentrifuge tubes. For concentrations of 0, 1:1000 PBS to MWOS was made.
2. […]
4. Once the wells were treated, plates were incubated at 37° C. for 24 hours and analyzed at 485-500 nm/520-530 nm after cytotoxicity assay treatment.

[2] = test system: NO production in Human Brain Microvascular Endothelial Cells (HBMVEC); experiment: In vitro NO detection assay (Nitric Oxide Cell-Based HTS Assay); conditions: 100 nM to 0.5 mM, analyzed every 15 mins for 1 h, Example 1 versus L-arginine, FIGS. 3-4
Experimental: “A” Bars: […]; “B” bars: 10 μM; “C” bars: 100 μM; “D” bars: 0.5 mM.
The following general procedures were performed for the NO detection assay. See, e.g., Nitric Oxide Cell-Based HTS Assay Kit technical data sheet, Biovision Incorporated; Catalog #K979-10, September 2016, the disclosure of which is incorporated herein by reference in its entirety.
1. Performed cell culture protocol as described in Example 2.
2. Warmed all reagents in 37° C. water bath.
3. Master mix: 3 μL dye to 1.5 mL of Assay buffer for at least 60 wells.
4. Standard curve master mix: 5 μL NO stock solution to 95 μL NO Buffer for at least 60 wells.
5. Media was aspirated from column 1B-1G before aliquoting standard curve solution, as shown below in Table 2.
6. Media was aspirated from 2B-2G through 6B-G before 50 μL aliquots of staining dye. This step was repeated for […] through 10B-10G.
7. Plates were incubated for 1 hour in 37° C.
8. After 1 hour, plates were transferred back into sterile conditions and washed 2× with EndoGro Media (previously warmed to 37° C.) before aliquoting the concentrations shown in Table 3 into each well.
9. Plates were incubated at 37° C. and analyzed every 15 mins for 1 h.

[3] = cited from earlier work; for baseline plasma concentration of L-arginine: normal diet over 8 hours

| SMILES | toxicity in the cellular model [1] | capacity for mediating NO production [2] | baseline plasma concentration of L-arginine ([3]; converted value) [µM] | baseline plasma concentration of L-arginine [3] | peak concentration ([3]; single oral 10 g dose, converted value) [µM] | absolute bioavailability ([3]; single oral 10 g dose) | peak concentration ([3]; single oral 10 g dose) [µg/mL] | time of peak concentration after administration ([3]; single oral 10 g dose) [h] | toxicity in comparison to L-arginine ([1]; FIG. 2) |
| --- | --- | --- | --- | --- | --- | --- | --- | --- | --- |
| N=C(N)NCCC[C@H](N)C(=O)O [L-arginine] | non-toxic | nearly identical capacity for mediating NO production | ~86.7 | about 15.1±2.6 μg/mL | ~287.0 | about 20% | 50.0 | 1 |  |
| N=C(N)NCCCCNC(=O)C(N)CCCNC(=N)N (centres unmarked) [Example 1, 2-amino-5-guanidino-N-(4-guanidinobutyl)pentanamide] | non-toxic | nearly identical capacity for mediating NO production |  |  |  |  |  |  | no significant difference in toxicity |

— patent US11655210B2, “Compound for improving L-arginine bioavailability” (The General Hospital Corporation, priority 2018, dated 2023)
